Results: the supplement of paper PMC10307832

What was measured:
Assay in all cases: relative viability (nuclei count vs DMSO), 5 days (fraction); higher = more cells survive
BAM7 + Linsitinib = compound: CCOC1=CC=CC=C1N=NC2=C(NN(C2=O)C3=NC(=CS3)C4=CC=CC=C4)C [BAM7] + C[C@]1(O)C[C@@H](c2nc(-c3ccc4ccc(-c5ccccc5)nc4c3)c3c(N)nccn32)C1 [Linsitinib] (partner 1 µM)
Procedure, shortened: (§1)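 Values are medians from duplicate plates. Each reflects relative viability, defined as the nuclei count of treated wells over that of vehicle wells. Lung cancer cell lines in 1536-well plates were pin-tool dosed one day after seeding with one drug alone or with a fixed anchor-drug dose plus five library-drug doses (not always all listed) in √10 steps, then fixed, stained and imaged at 4× after 5 days.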

[1] = compound: CCn1c(-c2nonc2N)nc2c(C#CC(C)(C)O)ncc(OC[C@H]3CCCNC3)c21 + C[C@@H](Oc1cc(-c2cnn(C3CCNCC3)c2)cnc1N)c1c(Cl)ccc(F)c1Cl [Crizotinib] (partner 1 µM)
Procedure, shortened: as §1

[2] = compound: CCn1c(-c2nonc2N)nc2c(C#CC(C)(C)O)ncc(OC[C@H]3CCCNC3)c21 + O=C(c1cc(Cc2n[nH]c(=O)c3ccccc23)ccc1F)N1CCN(C(=O)C2CC2)CC1 [Olaparib] (partner 8 µM)
Procedure, shortened: as §1

[3] = compound: CCn1c(-c2nonc2N)nc2c(C#CC(C)(C)O)ncc(OC[C@H]3CCCNC3)c21 + Nc1nc2[nH]cc(CCc3ccc(C(=O)N[C@@H](CCC(=O)O)C(=O)O)cc3)c2c(=O)[nH]1 [Pemetrexed] (partner 0.2 µM)
Procedure, shortened: as §1

| Cell Line | relative viability (BAM7 + Linsitinib; first compound 0.5 µM) | relative viability (BAM7 + Linsitinib; first compound 5 µM) | relative viability (BAM7 + Linsitinib; first compound 15.81 µM) | relative viability (BAM7 + Linsitinib; first compound 50 µM) | relative viability ([1]; first compound 0.01 µM) | relative viability ([1]; first compound 0.03162 µM) | relative viability ([1]; first compound 0.1 µM) | relative viability ([1]; first compound 0.3162 µM) | relative viability ([1]; first compound 1 µM) | relative viability ([2]; first compound 0.01 µM) | relative viability ([2]; first compound 0.03162 µM) | relative viability ([2]; first compound 0.1 µM) | relative viability ([2]; first compound 0.3162 µM) | relative viability ([2]; first compound 1 µM) | relative viability ([3]; first compound 0.01 µM) | relative viability ([3]; first compound 0.03162 µM) | relative viability ([3]; first compound 0.1 µM) | relative viability ([3]; first compound 0.3162 µM) | relative viability ([3]; first compound 1 µM) |
| --- | --- | --- | --- | --- | --- | --- | --- | --- | --- | --- | --- | --- | --- | --- | --- | --- | --- | --- | --- |
| NCI-H2228 | 0.674 | 0.789 | 0.554 | 0.842 | 0.552 | 0.56 | 0.476 | 0.378 | 0.33 | 0.701 | 0.895 | 0.847 | 0.541 | 0.55 | 0.336 | 0.302 | 0.328 | 0.339 | 0.318 |
| HOP-62 | 1.09 | 1.23 | 0.904 | 0.756 | 0.769 | 0.978 | 0.929 | 0.874 | 0.888 | 0.396 | 0.419 | 0.445 | 0.521 | 0.603 | 0.289 | 0.407 | 0.289 | 0.288 | 0.286 |
| HARA | 1.08 | 1.14 | 0.864 | 1.08 | 0.976 | 1.01 | 1.05 | 1.03 | 1.02 | 0.909 | 0.903 | 0.808 | 0.687 | 0.763 | 0.24 | 0.19 | 0.223 | 0.247 | 0.249 |
| IA-LM | 0.755 | 0.705 | 0.545 | 0.672 | 0.824 | 0.601 | 0.862 | 0.703 | 0.323 | 0.942 | 0.791 | 0.937 | 1.3 | 0.786 | – | – | – | – | – |
| NCI-H1793 | 0.971 | 1.15 | 0.653 | 0.789 | – | – | – | – | – | 0.765 | 1.26 | – | 0.742 | 0.933 | 0.864 | 0.917 | – | 0.845 | 0.923 |
| ChaGo-K-1 | – | – | – | – | 1.05 | 1.14 | 1.13 | 1.05 | 1.19 | 0.397 | 0.443 | 0.408 | 0.408 | 0.398 | 0.262 | 0.254 | 0.26 | 0.258 | 0.248 |
| NCI-H522 | – | – | – | – | – | – | – | – | – | 0.622 | 0.779 | 0.724 | 0.628 | 0.581 | 0.989 | 1.02 | 0.915 | 0.95 | 1.17 |
| NCI-H1299 | 1.02 | 1.14 | 1.02 | 0.936 | 0.935 | 0.927 | 0.948 | 0.919 | 0.997 | 0.954 | 0.965 | 0.936 | 0.995 | 0.984 | – | – | – | – | – |
| NCI-H1650 | – | – | – | – | 0.964 | 1.06 | 0.924 | 0.971 | 1.07 | 0.782 | 0.837 | 0.893 | 0.761 | 0.738 | 0.361 | 0.352 | 0.369 | 0.359 | 0.348 |
| NCI-H1648 | – | – | – | – | – | – | – | – | – | 0.937 | 0.851 | 0.767 | 0.604 | 0.567 | 0.62 | 0.756 | 0.759 | 0.664 | 0.723 |
| NCI-H727 | 0.273 | 0.416 | 0.314 | 0.245 | 0.841 | 0.94 | 0.785 | 0.667 | 0.763 | 0.801 | 0.668 | 0.751 | 0.805 | 0.869 | – | – | – | – | – |
| NCI-H2342 | – | – | – | – | – | – | – | – | – | 0.517 | 0.42 | 0.486 | 0.482 | 0.44 | 0.751 | 0.73 | 0.767 | 0.754 | 0.8 |
| SW 900 | – | – | – | – | – | – | – | – | – | 0.871 | 0.853 | 0.742 | 0.88 | 0.864 | 0.488 | 0.502 | 0.465 | 0.385 | 0.499 |
| NCI-H1395 | 1.02 | 1.07 | 1.03 | 1.2 | – | – | – | – | – | 0.464 | 0.412 | 0.472 | 0.433 | 0.372 | 0.745 | 0.811 | 0.793 | 0.647 | 0.769 |
| A549 | 0.658 | 0.617 | 0.57 | 0.559 | 0.665 | 0.706 | 0.718 | 0.666 | 0.63 | 0.407 | 0.351 | 0.318 | 0.301 | 0.257 | – | – | – | – | – |
| NCI-H2170 | – | – | – | – | 1.16 | 1.26 | 1.1 | 1.15 | 1.24 | 0.654 | 0.567 | 0.645 | 0.559 | 0.586 | 0.278 | 0.286 | 0.266 | 0.271 | 0.234 |
| NCI-H1563 | 1.22 | 1.19 | 1.13 | 1.24 | 0.853 | 0.923 | 0.799 | 0.772 | 0.81 | – | – | – | – | – | 0.76 | 0.674 | 0.678 | 0.702 | 0.854 |
| ABC-1 | 0.883 | 1.18 | 0.815 | 0.758 | 1.37 | 1.27 | 0.867 | 1.11 | 0.608 | 0.684 | – | 0.977 | 1.05 | 1.03 | – | – | – | – | – |
